Data set [1] deals with MDA-MB-231. Put plainly: Nuclear uptake, subcellular fractionation with gamma counter. The data set is classed as cell-based. To be noted: 24 h, 1 MBq/10^6 cells. How it is done:
(§1) Breast cancer cells were seeded (0.5 × 10^6) in a 12-well plate and treated with [^125I]PARPi-01 (1 MBq/10^6 cells) for 24 h. Subcellular fractionation was performed using a Subcellular Fractionation kit (ThermoFischer inc., #78840. Protein concertation was assessed using BCA assay. SDS-PAGE was performed using the fractions (30 µg/lane) and Any KD Mini-Protean TGX gels (90 V for 1.5 h). The separated proteins were transferred to PVDF membranes using a wet blotting (60 V, 2 h) technique. The blots were then blocked with 1% Milk/TBST and incubated with a primary antibody (anti-PARP1 (1:1000); Abcam ab227244; anti-GAPDH (1:4000); cell signalling 14C10, or anti-Histon H3 1:1000) Abcam ab1791). For the phosphorimager analysis, after blotting, the blots were sandwiched with a Fujifilm Imaging plate for Bioanalyzer (BAS-MS 2040), and incubated overnight, and the protein bound activity was imaged using a phosphorimager (Typhoon FLA 7000 version 1.2). To assess the tracer uptake, both fractions were measured using a gamma counter (Wizard^2, Perkin Elmer, USA).

In data set [2] the test system is MCF-7. Described as above. The data set is classed as cell-based. As to conditions: 24 h, 1 MBq/10^6 cells. The procedure: as §1
For data set [3], the system named is MDA-MB-468. The data set is described as above. The data set is classed as cell-based. As to conditions: 24 h, 1 MBq/10^6 cells. How it is done: as §1
Data set [4] can be described thus: Time activity analysis of organ activity (biodistribution, therapy study and SPECT/CT data pooled). The data set is classed as in vivo, NOD/SCID mice. How it is done: For biodistribution, animals imaged at 4 h p.i. were killed 24 h p.i., while the ones scanned 24 h p.i. were killed 5 days p.i.. Subsequently, organs were excised, weighed, and assayed for radioactivity in a gamma counter. Mean tumour and organ uptake was determined from decay-corrected tissue radioactivity normalized to injected dose and tissue sample weight (%ID/g tissue wet weight).
All statistical analyses were performed using the Graph-Pad Prism software (Version 9.1.1). Biodistribution data is expressed as mean ± standard deviation. Kaplan–Meier Survival curve was analysed using survival analysis (Log rank Mantel-Cox test). The data points of the normalized tumour volume as a function of the time of the groups (Control, ^125I-PARPi, Control—excluded ulcers, ^125I-PARPi—excluded ulcers) were subjected to nonlinear regression analysis using the exponential growth formula Y = Y0*exp(k*x) (Malthusian). Accordingly, the doubling time is equal to ln(2)/k. […] During regression analysis, the best-fit value k was compared between two datasets each using the extra sum-of-squares F test, testing the null hypothesis that k is the same for both datasets. Time activity analysis was performed using nonlinear exponential decay curve fitting and area under the curve was computed using the Graph-Pad Prism software. The area under the curve is expressed as total peak area ± standard error. For statistical analysis of fluorescent signals, unpaired t-test was used.
Auger emitter-based therapeutic effect was assessed upon application of [^125I]PARPi-01 in 4 doses (8.15 ± 2.96 MBq/dose) with 10 days between each dose in subcutaneous MDA-MB-231 models (Fig. 3A). The fractionated therapy was designed based on two recent publications. In the study by Riad et al., a good tumour response without severe toxicity in normal tissue after application of 30 MBq ^125I-labeled PARPi was shown. […] Furthermore we observed DNA damage upon low dose PARPi application in our in-vitro experiments in the MDA-MB-231 cell line. […] To avoid any handling bias in calliper measurements, only CT-image-based tumour growth was analysed. […] A significant delay in tumour growth was observed upon [^125I]PARPi-01 treatment showing doubling time of 14.2 d (95% CI: 12.6 d to 16.1 d) (Fig. 3B, Additional file 1: Fig. S3). Comparing the treatment group with the control (with and without exclusion of animals with ulcers) we could see a significant difference between the k values (P < 0.0001 and P = 0.0038, respectively) and thus also the doubling time. […] A significant portion of the mice in both the control group and the therapy group were sacrificed due to reaching humane endpoints not related to tumour size. 2 mice were sacrificed due to ascites and 10 mice were sacrificed due to ulcer formation on the tumour site. […] Considering only this selection of mice, median survival time was 35 and 38 for control and therapy mice, respectively. Since, as shown for ^177Lu labelled tracer, data (SUV, concentration) calculated based on SPECT images correlate with those obtained by gamma counting, liver, tumour, and muscle were excised for subsequent gamma counter measurements. To obtain the time activity curve and tracer retention time in each organ, the decay corrected activity (%ID/g) from the biodistribution study, therapy study and also organ activity calculated from SPECT/CT images at 4 h and 24 h p.i. were taken together and plotted over time for liver (Fig. 3D), tumour (Fig. 3E) and muscle (Fig. 3F). Tracer uptake in liver was at a peak of 3.84%ID/g at 4 h p.i. and dropped over time to 0.411%ID/g (8d p.i.). […] The peak uptake of muscle was only 0.186%ID/g at 4 h p.i. and decreased to 0.002%ID/g at 8 d p.i. The overall area under the curve (retention time) in tumour was 26.53 ± 2.35 h/g as opposed to a liver retention of 284 ± 45.02 h/g, whereas the retention time of muscle was only 5.918 ± 0.98 h/g.

Data set [5] deals with MDA-MB-231 tumour tissue, liver, thyroid. Nature of the data set: Apoptosis (TUNEL) staining of ex vivo tissue sections. The data set is classed as in vivo, NOD/SCID mice. How it is done: Organs excised and retrieved from control (n = 3) and therapy mice (n = 3) were fixed with 4% PFA overnight at 4 °C. For cryopreservation, the organs were kept for 2–3 days at 4 °C in 30% sucrose Cryosections (6 µm) of excised and preserved organs were made using a cryostat (Leica, CM3050S). For TUNEL fluorescence quantification, therapy mice (n = 3) and control mice (n = 3) slices were stained simultaneously. The TUNEL staining kit (Roche # 11684795910) was used and protocol was followed as mentioned in the staining kit. Tissues were washed with PBS and permeabilised with 0.1 % Triton-X in 0.1 % […] on ice for 2 min. Following permeabilization, sections were incubated with TUNEL reaction mixture (Fluorescence labelled Terminal deoxynucleotidyl transferase enzyme dissolved in nucleotide buffer) for 1 h at 37 °C. After PBS wash, the cells were mounted with RotiMount® Vectashield containing DAPI and analysed using fluorescence microscopy (Zen Lite, Carl Zeiss). The images were processed and quantified using CellProfiler 3.0 software.

The subject of data set [6] is MDA-MB-231 cells. Set-up: method as in PMID 35008392. To be noted: cited from earlier work.
Setting [7] is: total peak area ± standard error.

“Also recorded” adds a separate entry of the source.

Turning to `O=C(c1ccc([125I])cc1)N1CCN(C(=O)c2cc(Cc3n[nH]c(=O)c4ccccc34)ccc2F)CC1` [[^125I]PARPi-01], the “nuclear tracer localization, of total tracer” value in data set [1] is recorded as over 75%; in data set [2], “more than 40%”; in data set [3], over 75%. In addition, the results for the “tracer accumulation in tumour” value in data set [4] (4 h p.i.), in data set [4] (24 h) and in data set [4] (8 days) were 0.7219 %ID/g, 0.2 % ID/g and 0.02%, respectively. Also, the “tracer uptake in liver” value in data set [4] (4 h p.i. (peak)) turned out to be 3.84 %ID/g; in data set [4] (8 d p.i.), 0.411 %ID/g. The uptake of muscle came out at 0.186 %ID/g in data set [4] (4 h p.i. (peak)) and 0.002 %ID/g in data set [4] (8 d p.i.). Further, the “area under the curve (retention time) in liver” value in data set [4] (setting [7]) came to 284 ± 45.02 h/g. In addition, the “area under the curve (retention time) in muscle” value in data set [4] (setting [7]) is 5.918 ± 0.98 h/g. Further, the “area under the curve (retention time) in tumour” value in data set [4] (setting [7]) turned out to be 26.53 ± 2.35 h/g. The “apoptosis in liver or thyroid” value in data set [5] (therapy group) is given as “did not show any noticeable apoptosis; also recorded: no noticeable apoptosis”. Further, in data set [5] (therapy group n = 3, P < 0.05 vs control), the “percentage of nuclei in tumour positive for apoptosis” value amounted to 52.5 ± 19.0%. For the same molecule, the “colony formation after treatment” value in data set [6] is recorded as “significant reduction in colony formation”.
